What all share (type): cell-based
The test system of data set [1] is C. albicans. The data set can be described thus: Plasma membrane permeabilization (propidium iodide staining). Particulars: 2 h treatment at MIC90, PI staining, mean ± SD, n = 3. The procedure: (§1) We tested ILs for their activity in permeabilizing fungi plasma membranes (PMs), by treating cells with concentrations of ILs corresponding to their MIC90 values (Table 2).
(§2) The assessment of PM permeability was performed as described previously, with modifications. Briefly, 3 mL of Candida spp. cell suspensions (OD600 = 0.1) in PBS were mixed with ILs (concentrations equivalent to MIC90 against each fungi). Samples were incubated for 2 h at 37 °C, washed with PBS and stained with PI to the final dye concentration of 6 × 10^−6 M for 5 min. Then, cell suspensions were washed with PBS and observed under the Zeiss Axio Imager A2 microscope equipped with the Zeiss Axiocam 503 mono microscope camera and Zeiss HBO100 mercury lamp. The percentage of permeabilized cells was evaluated by counting PI positive cells out of one hundred in three independent repetitions for each experiment.

Data set [2] relates to C. glabrata. The description is as above. Particulars: 2 h treatment at MIC90, PI staining, mean ± SD, n = 3. The procedure: as §1, §2
The test system of data set [3] is C. krusei. The data set is described as above. Particulars: 2 h treatment at MIC90, PI staining, mean ± SD, n = 3. On the procedure: as §1, §2
Data set [4] concerns C. parapsilosis. The description is as above. Particulars: 2 h treatment at MIC90, PI staining, mean ± SD, n = 3. On the procedure:
as §1, §2

The next data set concerns sheep erythroid PMs. As to the kind of experiment: Hemolysis assay. Particulars: AMB conc. 0.25 µM; sheep RBCs; 1% SDS = 100% hemolysis. On the procedure:
To examine any possible toxic effect towards animal cells, ILs were tested for their lytic activity on sheep erythroid PMs, in comparison to AMB (Table 3). For this part of study, higher concentrations were selected, corresponding to MFC values of tested fungi (12.5; 25 and 50 µM in case of ILs, and 0.25; 0.5 and 1 µM in case of AMB, Table 1). The compounds were ranked in terms of hemolytic activity as follows: 1a > 1b > 2a. IL with alkoxymethyl chain (2a) produced <5% hemolysis, regardless of the concentration used. Compounds with alkyl substituents (1a and 1b) were more hemolytic in 12.5 than in 25 µM concentrations, and in the highest concentration (50 µM), both compounds produced >10% and >5% hemolysis, respectively.
ILs were tested for hemolytic activity, as described previously. Briefly, 5 mL of fresh sheep blood was centrifuged (2000 rpm, 15 min), washed with PBS and resuspended in PBS to achieve hematocrit level of 50%. Red blood cells (RBCs) were treated with ILs (concentrations = 12.5, 25 and 50 µM) for 2 h at 37 °C. Afterwards, RBCs were centrifuged (2000 rpm, 5 min) and the absorbance of the supernatant was measured at 540 nm (ASYS UVM 340 Biogenet). The percentage of hemolysis was determined in comparison to the hemoglobin absorbance released by a 1% SDS solution (100% hemolysis).

The test system of data set [5] is C. albicans. As to the kind of experiment: Detachment of adherent cells from polystyrene (crystal violet). Particulars: C. albicans on polystyrene, 2 h treatment; highest concentration (4 × MIC). The procedure:
(§3) Thus, for the evaluation of ILs on fungal adhesion, higher concentrations were used, corresponding to 1, 2 and 4 times the MIC90 values (Figure 1).
(§4) Figure 1 Detachment of adherent Candida spp. cells after 2 h incubation on polystyrene surfaces by ionic liquids (ILs) (A) or amphotericin B (AMB) (B) (means ± SD; n = 3). Results are presented as percentage of adherent cells relative to untreated controls (100% adhesion). Statistical analysis of detachment at each concentration was performed towards corresponding control experiments (fungi untreated by ILs or AMB = 100% adhesion) (*, p < 0.05 and **, p < 0.01).
(§5) Post-adherence treatment with ILs was performed in a similar manner to that described previously by our team. Candida spp. suspensions were prepared by centrifuging YPD-grown cultures and resuspending fungal mass in PBS to an OD600 = 0.6. Sterile 96-well plates were inoculated with the prepared suspensions and incubated for 2 h at 37 °C to induce fungal adhesion. Afterwards, adherent cells were washed with PBS to remove planktonic cells and treated with ILs (concentrations equivalent to 1, 2 or 4 × MIC90 for each fungi) for 2 h at 37 °C. Then, each well was washed with PBS and adherent cells were fixed with 0.1% CV solution for 5 min, and washed with PBS. Cells were then treated with a solution of isopropanol 0.04 N HCL with 0.1% SDS to permeabilize adherent cells and release the CV dye. The absorbance of CV was measured at 590 nm (ASYS UVM 340 Biogenet). The percentage of cells that were removed was determined in comparison to adherent cells treated with PBS only (designated 100% adhesion).

The test system of data set [6] is C. glabrata. The data set is described as above. Particulars: C. glabrata on polystyrene, 2 h treatment; highest concentration (4 × MIC). The procedure:
as §3, §4, §5

For data set [7], the system named is C. krusei. Described as above. Particulars: C. krusei on polystyrene, 2 h treatment; highest concentration (4 × MIC). The procedure: as §3, §4, §5
Data set [8] has as its system C. parapsilosis. Described as above. Particulars: C. parapsilosis on polystyrene, 2 h treatment; highest concentration (4 × MIC). The procedure:
as §3, §4, §5

Another data set concerns C. glabrata ATCC90030. As to the kind of experiment: Minimal inhibitory and fungicidal concentrations (broth microdilution, CLSI M27-A3 modified). Particulars: Nakaseomyces glabratus, 28 °C. On the procedure:
(§6) Experiments were performed according to the Clinical and Laboratory Standards Institute (2008), 3rd ed. M27-A3 [51], with modifications described previously. Briefly, MICs were determined by serially diluting ILs in YPD medium in sterile 96-well plates (Sarstedt) and inoculating with fungal suspensions (final OD600 per well = 0.01). After incubation (48 h; 28 °C), the OD600 was measured (ASYS UVM 340 Biogenet). […] Each well was then replated on YPD agar and incubated for 5 days at 28 °C.
(In general: Dilution methods test growth across graded concentrations, often in twofold steps.)

The test system of the next data set is C. albicans SC5314. The data set is described as above. Particulars: Candida albicans, 28 °C. The procedure: as §6
In a further data set the test system is C. krusei ATCC6258. Described as above. Particulars: Pichia kudriavzevii, 28 °C. The procedure:
as §6

The test system of another data set is C. parapsilosis CBS10947. The data set is described as above. Particulars: Lodderomyces parapsilosis, 28 °C. The procedure:
as §6

The mark [9] stands for this setting: 120 h, replated on YPD agar, 5 days, read-out: Minimal fungicidal concentration (MFC).
Where [10] appears, read: ≥90% growth inhibition, 48 h, YPD, read-out: Minimal inhibitory concentration (MIC90).

We go through one molecule from article PMC8304783, “Antiadhesive Properties of Imidazolium Ionic Liquids Based on (−)-Menthol Against Candida spp” (International Journal of Molecular Sciences, 2021).

≈ marks a conversion by molar mass, not a printed value.

For the molecule `C[C@@H]1[C@H](O)[C@@H](C)/C=C/C=C/C=C/C=C/C=C/C=C/C=C/[C@H](O[C@@H]2O[C@H](C)[C@@H](O)[C@H](N)[C@@H]2O)C[C@@H]2O[C@](O)(C[C@@H](O)C[C@@H](O)[C@H](O)CC[C@@H](O)C[C@@H](O)CC(=O)O[C@H]1C)C[C@H](O)[C@H]2C(=O)O` [AMB, amphotericin B, reference compound], the “Percentage of cells with permeabilized PMs” value was 37.3 ± 4.17 % with C. albicans [1], 43.2 ± 2.15 % in the data set on C. glabrata [2], 38.2 ± 10.7 % with C. krusei [3] and 32.38 ± 3.15 % in the data set with C. parapsilosis [4]. This molecule also displayed a Hemolytic activity with sheep erythroid PMs of 86.7 ± 0.43 %. Moreover, the Reduction of adhesion with C. albicans [5] is ~ 27%; in the data set on C. glabrata [6] it was ~ 15%; in the data set on C. krusei [7], ~ 20%; with C. parapsilosis [8], ~ 20%. The MFC with C. glabrata ATCC90030 (setting [9]) amounted to 0.5 µM (≈ 0.462 µg/mL); with C. albicans SC5314 (setting [9]), 0.5 µM (≈ 0.462 µg/mL); with C. krusei ATCC6258 (setting [9]) it was 1 µM (≈ 0.924 µg/mL); with C. parapsilosis CBS10947 (setting [9]), 0.5 µM (≈ 0.462 µg/mL). In addition, the MIC90 in the data set on C. glabrata ATCC90030 (setting [10]) amounted to 0.25 µM (≈ 0.231 µg/mL); in the data set on C. albicans SC5314 (setting [10]), 0.25 µM (≈ 0.231 µg/mL); with C. krusei ATCC6258 (setting [10]), 0.5 µM (≈ 0.462 µg/mL); in the data set on C. parapsilosis CBS10947 (setting [10]), 0.25 µM (≈ 0.231 µg/mL).
